Source: US10633375B2, “Oxopicolinamide derivative, preparation method therefor and pharmaceutical use thereof” (Jiangsu Hengrui Medicine Co., Ltd., priority 2016, dated 2020)

How the values were obtained:
human blood = experiment: In vitro anticoagulant effect on human blood (APTT, CT2); conditions: concentration corresponding to 2 times the APTT of the blank control, human plasma
Protocol: Test Example 2: Determination of In Vitro Anticoagulant Effect of the Compounds of the Present Invention on Human Blood
(§1) 1. Experimental Materials
Plasma: Human blood was collected in blood collection tubes containing no anticoagulant, and then 3.8% sodium citrate (volume ratio 1:9) was added. The tubes were centrifuged at 2500 rpm for 10 minutes at room temperature, and then the plasma was collected and stored at −80° C.;
Reagents: APTT reagent (Activated partial thromboplastin time assay kit, SIEMENS, Art. No. B4218-1), calcium chloride solution;
Instrument: Coagulation instrument (SYSMEX, CA-500).
The divided plasma was melted at room temperature and mixed well. 10000 μM the test compound dissolved in 100% DMSO was diluted to 3000, 300, 200, 150, 75, 30, 10, 3, 0.3 μM with 100% DMSO, and the blank was 100% DMSO. The reagent, plasma, and compound were placed in corresponding positions in the coagulation instrument, and APTT detection of the compound was carried out.
Curve fitting was carried out by graphpad and CT2 was calculated, i.e., the concentration of the compound corresponding to 2 times the APTT of the blank control.

[1] = target: Coagulation Factor XIa protease (Homo sapiens (Human), UniProt P03951); experiment: Inhibition of Factor XIa detected by absorption photometry; type: biochemical; conditions: absorbance at 405 nm, 10 minutes at 37° C.
Protocol: Test Example 1: Biological Activity of the Compounds of the Present Invention on
The Inhibition of Factor XIa Detected by Absorption Photometry
as §1
Enzyme: Coagulation Factor XIa protease (Abcam, Art. No ab62411)
Substrate: Coagulation Factor XIa specific substrate (HYPHEN1310 med, Art. No. Biophen cs-21(66))
2. Experimental Procedure
20 mM of test compound dissolved in 100% DMSO was diluted to 200, 20, 2, 0.2, 0.02, 0.002 μM with 100% DMSO; 1 μl of the compound was added to each well in a 384-well plate, blank and control wells were replaced with DMSO. The plate was centrifuged to remove the compound to the bottom. 10 μl (2.5 μg/ml) of FXIa enzyme solution was added to each well, and 10 μl of buffer was added to the blank well. The plate was centrifuged to remove the enzyme solution to the bottom.
Finally, 10 μl of 2 mM substrate were added to each well, and the plate was centrifuged to remove the substrate solution to the bottom.
The plate was incubated for 10 minutes at 37° C.; and then the absorbance was measured at 405 nm.

[2] = Pharmacokinetics assay in rats after intragastrical administration; type: in vivo, Sprague-Dawley (SD) rats; conditions: SD rats, intragastric, 2 mg/kg; for Vd/F / AUC / CL/F / half-life / MRT / Cmax: both sexes, Sprague-Dawley, rat, plasma, po; for Vd/F: read-out: Apparent Distribution Volume Vz/F; for AUC: read-out: Area Under Curve AUC; for CL/F: read-out: Clearance CLz/F; for half-life: read-out: Half-Life T½ (converted); for MRT: read-out: Mean Residence Time MRT; for Cmax: read-out: Plasma Concentration Cmax
Description: Test Example 3. Pharmacokinetics Assay of the Compounds of the Present Invention
Rats were used as test animals. […] The pharmacokinetic behavior of the compounds of the present invention was studied and evaluated in rats.
56 healthy adult Sprague-Dawley (SD) rats, half male and half female, were purchased from SINO-BRITSH SIPPR/BK LAB. ANIMAL LTD., CO, with License No.: SCXK (Shanghai) 2008-0016.
2.3 Preparation of the Test Compounds
A certain amount of the test compound was weighed, and added with 5% by volume of DMSO, 5% by volume of Tween 80 and 90% normal saline to prepare a 0.2 mg/mL colorless, clear and transparent solution.
After an overnight fast, SD rats were intragastrically administered at a dose of 2.0 mg/kg and an administration volume of 10.0 mL/kg.
Blood (0.2 mL) was taken from the orbital sinus before administration and at 0.5, 1.0, 2.0, 4.0, 6.0, 8.0, 11.0 and 24.0 hours after administration. The samples were stored in heparin anticoagulation tubes, and centrifuged for 10 minutes at 3500 rpm at 4° C. to separate the blood plasma. The plasma samples were stored at −20° C. The rats were fed 2 hours after administration.
The content of the test compound in the plasma of rats after intragastric administration of different concentrations of the drug was determined: 25 μL of rat plasma at each time after administration was taken and added with 30 μL (100 ng/mL) of the internal standard solution of camptothecin and 200 μL of acetonitrile, shaken vertically for 5 minutes, and centrifuged for 10 minutes (4000 rpm). 3.0 μL of the supernatant was taken from the plasma samples for LC/MS/MS analysis.
4. Results of Pharmacokinetic Parameters
Pharmacokinetic parameters of the compounds of the present invention in rats are shown below.

Coagulation Factor XIa protease, sequence (P03951 388-625): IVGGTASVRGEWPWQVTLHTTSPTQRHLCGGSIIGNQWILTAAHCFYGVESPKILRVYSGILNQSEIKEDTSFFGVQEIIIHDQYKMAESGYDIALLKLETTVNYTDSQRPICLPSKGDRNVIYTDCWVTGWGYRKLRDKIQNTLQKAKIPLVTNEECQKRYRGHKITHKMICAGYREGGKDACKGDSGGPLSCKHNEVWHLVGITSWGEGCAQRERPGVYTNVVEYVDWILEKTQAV
Coagulation Factor XIa protease, sequence (P03951 19-387 partner): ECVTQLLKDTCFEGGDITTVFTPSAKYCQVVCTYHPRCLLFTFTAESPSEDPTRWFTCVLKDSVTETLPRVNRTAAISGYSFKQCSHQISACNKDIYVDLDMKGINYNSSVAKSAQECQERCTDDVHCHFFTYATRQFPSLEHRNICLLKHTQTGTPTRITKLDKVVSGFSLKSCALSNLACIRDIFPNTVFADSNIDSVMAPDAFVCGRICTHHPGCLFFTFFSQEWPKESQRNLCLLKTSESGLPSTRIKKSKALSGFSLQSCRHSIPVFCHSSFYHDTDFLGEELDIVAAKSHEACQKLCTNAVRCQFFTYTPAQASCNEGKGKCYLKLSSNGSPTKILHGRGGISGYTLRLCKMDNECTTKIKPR

In the case of `COc1cn([C@@H](CCOC(C)(C)C)C(=O)Nc2ccc3nccnc3c2)c(=O)cc1-c1cc(Cl)ccc1-c1nc(C)no1` [Comparative Example 2, (S)-4-(tert-butoxy)-2-(4-(5-chloro-2-(3-methyl-1,2,4-oxadiazol-5-yl)phenyl)-5-methoxy-2-oxopyridin-1 (2H)-yl)-N-(quinoxalin-6-yl)butanamide, reference compound], the “CT2, concentration doubling APTT” value (human blood; Table 3 comparison) is reported as 13.1 µM.

With `[2H]C([2H])([2H])C(=O)c1ccc(Cl)cc1-c1cc(=O)n([C@H](Cc2ccccc2)C(=O)Nc2ccc(C(=O)O)cc2)cc1OC` [Example 184, 4-[[(2R)-2-[4-[5-chloro-2-(2,2,2-trideuteroacetyl)phenyl]-5-methoxy-2-oxo-1-pyridyl]-3-phenyl-propionyl]amino]benzoic acid] the “CT2, concentration doubling APTT” value (human blood; Table 2) was greater than 10000 µM.

For `[2H]C([2H])([2H])Oc1cn([C@H](CCOC(C)(C)C)C(=O)Nc2ccc(C(=O)O)cc2)c(=O)cc1-c1cc(Cl)ccc1C(=O)CC` [Example 178, 4-[[(2R)-4-tert-butoxy-2-[4-(5-chloro-2-propionyl-phenyl)-2-oxo-5-(trideuteromethoxy)-1-pyridyl]butyryl]amino]benzoic acid], the “CT2, concentration doubling APTT” value (human blood; Table 2) was greater than 10000 µM.

For `[2H]C([2H])([2H])C(=O)c1ccc(Cl)cc1-c1cc(=O)n([C@@H](Cc2ccccc2)C(=O)Nc2ccc(C(=O)O)cc2)cc1OC` [Example 183, 4-[[(2S)-2-[4-[5-chloro-2-(2,2,2-trideuteroacetyl)phenyl]-5-methoxy-2-oxo-1-pyridyl]-3-phenyl-propionyl]amino]benzoic acid], the “CT2, concentration doubling APTT” value (human blood; Table 2) was 2.6 µM.

In the case of `CCC(=O)c1ccc(Cl)cc1-c1cc(=O)n(C(Cc2ccn(C3CC3)n2)C(=O)Nc2ccc(C(=O)O)cc2)cc1OC` (centres unmarked) [Example 91, 4-(2-(4-(5-chloro-2-propionylphenyl)-5-methoxy-2-oxopyridin-1 (2H)-yl)-3-(1-cyclopropyl-1H-pyrazol-3-yl)propanamido)benzoic acid], the “CT2, concentration doubling APTT” value (human blood; Table 2) is reported as 2.1 µM.

With `[2H]C([2H])([2H])Oc1cn([C@@H](Cc2ccccc2)C(=O)Nc2ccc(C(=O)O)cc2)c(=O)cc1-c1cc(Cl)ccc1C(C)=O` [Example 179, 4-[[(2S)-2-[4-(2-acetyl-5-chloro-phenyl)-2-oxo-5-(trideuteromethoxy)-1-pyridyl]-3-phenyl-propionyl]amino]benzoic acid] the “CT2, concentration doubling APTT” value (human blood; Table 2) was 3.3 µM.

With `CCC(=O)c1ccc(Cl)cc1-c1cc(=O)n([C@@H](Cc2ccn(C3CC3)n2)C(=O)Nc2ccc(C(=O)O)cc2)cc1OC` [Example 92, (S)-4-(2-(4-(5-chloro-2-propionylphenyl)-5-methoxy-2-oxopyridin-1 (2H)-yl)-3-(1-cyclopropyl-1H-pyrazol-3-yl)propanamido)benzoic acid] the “CT2, concentration doubling APTT” value (human blood; Table 2) was 1.2 µM.

For `COc1cn([C@H](Cc2ccccc2)C(=O)Nc2ccc(C(=O)O)cc2)c(=O)cc1-c1cc(Cl)ccc1C(C)=O` [Example 6, (R)-4-(2-(4-(2-acetyl-5-chlorophenyl)-5-methoxy-2-oxopyridin-1(2H)-yl)-3-phenylpropanamido)benzoic acid], the “CT2, concentration doubling APTT” value (human blood; Table 2) was greater than 10000 µM.

For `COc1cn([C@@H](CC2CCC2)C(=O)Nc2ccc(C(=O)O)cc2)c(=O)cc1-c1cc(Cl)ccc1C(C)=O` [Example 171, (S)-4-(2-(4-(2-acetyl-5-chlorophenyl)-5-methoxy-2-oxopyridin-1(2H)-yl)-3-cyclobutylpropanamido)benzoic acid], the IC50 [1] was 35 nM, the Vd/F [2] was 6.24 ± 2.15 L/kg and the AUC [2] was 701 ± 175 ng·h/mL. The CL/F [2] was 49.9 ± 12.5 mL/min/kg, the half-life [2] was 1.45 ± 0.32 h and the MRT [2] was 1.71 ± 0.32 h. It also gave a Cmax [2] of 462 ± 116 ng/mL.

For `COc1cn(C(Cc2ccccc2)C(=O)Nc2ccc(C(=O)O)cc2F)c(=O)cc1-c1cc(Cl)ccc1C(C)=O` (centres unmarked) [Example 29, 4-(2-(4-(2-acetyl-5-chlorophenyl)-5-methoxy-2-oxopyridin-1 (2H)-yl)-3-phenylpropanamido)-3-fluorobenzoic acid], the IC50 [1] was 90 nM, the Vd/F [2] was 45.4 ± 16.5 L/kg and the AUC [2] was 382 ± 98 ng·h/mL. The CL/F [2] was 92.5 ± 28.3 mL/min/kg, the half-life [2] was 6.06 ± 2.99 h and the MRT [2] was 5 ± 2.57 h. For the same compound, the Cmax [2] was 167 ± 45 ng/mL.

In the case of `COc1cn([C@@H](Cc2cccnc2)C(=O)Nc2ccc(C(=O)O)cc2)c(=O)cc1-c1cc(Cl)ccc1C(C)=O` [Example 84, (S)-4-(2-(4-(2-acetyl-5-chlorophenyl)-5-methoxy-2-oxopyridin-1(2H)-yl)-3-(pyridin-3-yl)propanamido)benzoic acid], the IC50 [1] is reported as 42 nM, the “AUC difference, Example 84 versus Comparative Example 1” value [2] is reported as 7.5 times and the “Cmax difference, Example 84 versus Comparative Example 1” value [2] is reported as 6.9 times. For the same compound, the Vd/F [2] was 37.9 ± 8.23 L/kg, the AUC [2] was 54.6 ± 19.1 ng·h/mL and the CL/F [2] was 673 ± 235 mL/min/kg. It also gave a half-life [2] of 0.68 ± 0.14 h, an MRT [2] of 1.2 ± 0.2 h and a Cmax [2] of 48.8 ± 8.8 ng/mL.

With `COc1cn(C(CC2CCC2)C(=O)Nc2ccc(C(=O)O)cc2)c(=O)cc1-c1c(C(C)=O)ccc(Cl)c1F` (centres unmarked) [Example 159, 4-(2-(4-(6-acetyl-3-chloro-2-fluorophenyl)-5-methoxy-2-oxopyridin-1(2H)-yl)-3-cyclobutylpropanamido)benzoic acid] the IC50 [1] was 33 nM.

`COc1cn([C@@H](Cc2ccncc2)C(=O)Nc2ccc(C(=O)O)cc2)c(=O)cc1-c1cc(Cl)ccc1C#N` [Comparative Example 1, (S)-4-(2-(4-(5-chloro-2-cyanophenyl)-5-methoxy-2-oxopyridin-1(21)-yl)-3-(pyridin-4-yl)propanamido)benzoic acid, reference compound] gave an AUC [2] of 7.27 ± 3.37 ng·h/mL and a Cmax [2] of 7.02 ± 2.97 ng/mL.

Compound `CCC(=O)c1ccc(Cl)cc1-c1cc(=O)n(C(CCOC(C)(C)C)C(=O)Nc2ccc3nccnc3c2)cc1OC` (centres unmarked) [Example 113, 4-(tert-butoxy)-2-(4-(5-chloro-2-propionylphenyl)-5-methoxy-2-oxopyridin-(2H)-yl)-N-(quinoxalin-6-yl)butanamide] has an IC50 [1] of 33 nM.

Compound `COc1cn(C(Cc2ccc(Cl)cc2)C(=O)Nc2ccc(C(=O)O)cc2)c(=O)cc1-c1cc(Cl)ccc1C(C)=O` (centres unmarked) [Example 69, 4-(2-(4-(2-acetyl-5-chlorophenyl)-5-methoxy-2-oxopyridin-1 (2H)-yl)-3-(4-chlorophenyl)propanamido)benzoic acid] has an IC50 [1] of 49 nM.

With `CCCC(=O)c1ccc(Cl)cc1-c1cc(=O)n(C(Cc2ccccc2)C(=O)Nc2ccc(C(=O)O)cc2)cc1OC` (centres unmarked) [Example 21, 4-(2-(4-(2-butyryl-5-chlorophenyl)-5-methoxy-2-oxopyridin-1 (2H)-yl)-3-phenylpropan amido)benzoic acid] the IC50 [1] was 36 nM.

For `CCC(=O)c1ccc(Cl)cc1-c1cc(=O)n([C@@H](Cc2ccccc2)C(=O)Nc2ccc(C(N)=O)cc2)cc1OC` [Example 26, (S)-4-(2-(4-(5-chloro-2-propionylphenyl)-5-methoxy-2-oxopyridin-1(2H)-yl)-3-phenylpropanamido)benzamide], the IC50 [1] was 21 nM.
